Read-outs that look alike come from different tables or passages of the source.
Columns and labels:
TRIM24-MET-r cells = experiment: 3-day dose-response assay, TRIM24-MET-r cells; type: cell-based; conditions: Homo sapiens
RAD51 = experiment: Western blot of RAD51 in TRIM24-MET or TFG-MET cells, 24 hours; type: cell-based, human and mouse
Protocol: Error bars display standard error of mean, statistical significance was determined using t-test analysis. (****;p<0.0001, ***;p<0.001, **;p<0.01, *;p<0.05). […] Each dot represents an individual replicate. Error bars display standard error of the mean. Statistical significance was determined using a One-Way ANOVA followed by Tukey’s multiple comparisons test (*p<0.05, **p<0.01, ***p<0.001, ****p<0.0001). Lysate from lane 10 was excluded due to the different timepoint after RT

[1] = cited from earlier work

Compound	EC90 (TRIM24-MET-r cells; 72 h, TRIM24-MET-r, 3-day dose response, read-out: EC90 Total) [nM]	EC90 (TRIM24-MET-r cells; TRIM24-MET-r, total value multiplied with unbound fraction in culture media, read-out: EC90 Unbound) [nM]	RAD51 protein level (RAD51)	mean steady total plasma AUC ([1]; humans, 400 mg BID orally)	EC50 (TRIM24-MET-r cells; 72 h, read-out: EC50 Total) [nM]	EC90 (TRIM24-MET-r cells; 72 h, read-out: EC90 Total) [nM]	EC50 (TRIM24-MET-r cells; read-out: EC50 Unbound) [nM]	EC90 (TRIM24-MET-r cells; read-out: EC90 Unbound) [nM]	mean steady total plasma AUC ([1]; pediatric solid tumors, maximum tolerated dose 280 mg/m^2 BID)
CNC(=O)c1ccc(-c2cnc3ncc(Cc4ccc5ncccc5c4)n3n2)cc1F [Capmatinib]	199	141	downregulation	17,300 hr-ng/mL					
C[C@@H](Oc1cc(-c2cnn(C3CCNCC3)c2)cnc1N)c1c(Cl)ccc(F)c1Cl [Crizotinib]			downregulation		151	5670	93	3500	6,990 hr-ng/mL

Source: article PMC11157767 (Molecular Cancer, 2024)
